In assay [1] the test system is C57BL/6 mice, transient middle cerebral artery occlusion (tMCAO). Nature of the assay: mouse tMCAO cerebral stroke model (Embodiment 69). In kind it is in vivo. Conditions: 3 mg/kg tail vein injection 3 h after reperfusion; for area of cerebral infarction caused by tMCAO: TTC staining 24 h after ischemia-reperfusion; for neuromotor dysfunction scores caused by tMCAO: scored 24 h after ischemia-reperfusion. The source says: After isoflurane inhalation gas anesthesia of 22-25 g male C57BL/6 mice, the fiber-optic probes of a laser Doppler flowmeter were fixed to the skull of the mice with glue for monitoring the cerebral blood flow of the middle cerebral artery (MCA) supplying cortex. The mice were fixed in the supine position, and the middle of the neck was dehaired and routinely sterilized with 75% alcohol. An approximately 1.5 cm incision was made in the middle of the neck, and the skin of the neck was incised, and the muscle and fascia were separated along the inner edge of the sternocleidomastoideole; the right carotid artery sheath was bluntly separated to expose the right common carotid artery (CCA), external carotid artery (ECA), and internal carotid artery (ICA); after the surgical area was exposed satisfactorily, the CCA and ICA were temporarily clipped with arterial clips, and a small incision was made at the proximal end of the ECA with microsurgical scissors, and a nylon monofilament suture was inserted from the small incision along the ECA, and gently pushed into the intracranial area in the direction of the ICA for about 11.5±0.5 mm, blocking the beginning of the middle cerebral artery. Only the animals whose blood flow values decreased to 20% of the basic value were selected according to the blood flow data monitored by the flowmeter. After 90 minutes of ischemia, the monofilament sutures were gently withdrawn out, the arterial stumps were tied tightly, the surgical wounds were inspected, the bleeding was thoroughly stopped, a small amount of penicillin powder was sprinkled locally to prevent infection, and the subcutaneous tissues and the skin were sutured layer by layer, thus completing the ischemia reperfusion injury model. A heating plate was used to maintain the body temperature of the animals during surgery. After completion of the surgery, the sutured mice were placed in a heat preservation and humidification box until the mice recovered activities. Animals in the sham-operated group were subjected to the same surgical procedure but without middle artery occlusion.
Clean-grade male C57BL/6 mice were randomly divided into five groups, namely, the sham-operated group, the group of the positive control drug Edaravone(3 mg/kg), and the 3 mg/kg dose group of compounds II-1, II-23 and III-1.
The mice were subjected to tail vein injections of Edaravone, II-1, II-23, and III-1 respectively 3 h after modeling and reperfusion; the sham-operated group was injected with an equal volume of saline, and II-1, II-23, III-1, and Edaravone were dissolved in 0.9% saline solution. Neurological function scores and TTC staining of mice were performed 24 h after ischemia-reperfusion, and the results are shown in FIGS. 6, 7 and 8.
The mice were decapitated 24 h after ischemia-reperfusion, the coronal planes of the brains were cut into brain slices of about 2 mm thickness uniformly. The brain slices were placed in 0.25% 2,3,5-triphenyltetrazolium chloride (TTC) solution, incubated at 37° C. Celsius for 30 minutes away from light, stained, and fixed in 4% paraformaldehyde neutral buffer (pH 7.4) overnight. The processed brain slices were photographed using a macro camera, and Image J image analysis software was used to calculate and count the cerebral infarct volume, and the measured results are shown in FIG. 7. The formula for calculating the percentage of infarct volume was (sum of the left uninfarcted area −sum of the right uninfarcted area)/sum of the left uninfarcted area×100%.
According to the five-level, four-point standard of score, the mortality and neuromotor dysfunction scores of each group of mice were performed, and the results are shown in FIG. 8. […]

The test system is the same in assay [2]. Kind of assay: mouse tMCAO ischemia/reperfusion injury model (Embodiment 68). In kind it is in vivo. The settings on record: 3 mg/kg tail vein injection 3 h after reperfusion. Here is the method:
After isoflurane inhalation gas anesthesia of 22-25 g male C57BL/6 mice, the fiber-optic probes of the laser Doppler flowmeter were fixed to the animal's skull with glue for monitoring the cerebral blood flow of the middle cerebral artery (MCA) supplying cortex. […] Only animals whose blood flow values decreased to 20% of the basic value were selected according to the blood flow data monitored by the flowmeter. […]
The mice were decapitated 24 h after ischemia-reperfusion, the coronal planes of the brains were cut into brain slices of about 2 mm thickness uniformly, the brain slices were placed in 0.25% 2,3,5-triphenyltetrazolium chloride (TTC) solution, incubated at 37° C. […] The processed brain slices were photographed using a macro camera, and Image J image analysis software was used to calculate and count the cerebral infarct volume, and the measured results are shown in FIG. 4. […]

A further assay addresses T1, human TRPM2 channels (Homo sapiens, UniProt O94759).
T1 construct: expressed in transfected cells
Nature of the assay: whole cell patch clamp, inhibition of TRPM2 channel current. The assay is classed as cell-based. The settings on record: HEK293 cells stably expressing human TRPM2, 500 μM ADPR. Here is the method: The fused heterocyclic compound of the present invention has an inhibitory effect on the TRPM2 channel, and its pharmacological activity is measured using whole cell patch clamp technology, the corresponding steps are as follows: Incubating HEK293 cells stably expressing human TRPM2 channels in DMEM/F-12 medium containing 10% bovine serum, 50 units/mL of penicillin and […] of streptomycin under the condition of 5% CO2 and 37° C. The cells before testing are stored in the extracellular fluid (147 mM NaCl, 2 mM KCl, 1 mM MgCl2, 2 mM CaCl2, 10 mM HEPES, 13 mM glucose, pH 7.4). The electrode is filled with the electrode internal solution (147 mM NaCl, 0.05 mM EGTA, 1 mM MgCl2, 10 mM HEPES, 0.5 mM ADPR, pH=7.3), and the resistance is maintained at 3-5 M Ω. Administering ADPR into cells through electrodes, and detecting the ADPR concentration used to activate TRPM2 as 500 μM, when detecting a stable current, perfusing the corresponding concentration of fused heterocyclic compound II-1 into the extracellular fluid for at least 60 seconds. record the change in current magnitude using voltage ramp mode, changing the voltage from −100 mV to+100 mV within 500 ms, with a normal clamp voltage of 0 mV and a TRPM every 5 seconds; finally, replacing the extracellular fluid with a solution with pH=5.0 to block the TRPM2 current, the electrophysiological current test results obtained are shown in Table 1, and the electrophysiological current graph obtained is shown in FIG. 1. Similarly, administering corresponding concentrations of other fused heterocyclic compounds (II-2˜II-54, III-1˜III-11) into the extracellular fluid, taking electrophysiological tests using the same method, the results are shown in Table 1. The electrophysiological representative current graphs of some fused heterocyclic compounds (II-9, II-19, and II-36) inhibiting TRPM2 channel current are shown in FIG. 1.
(In general: The patch-clamp technique gives a direct electrical read-out from membranes.)

One may read the IC50 as the concentration at which inhibition is half-maximal.

T1 sequence (O94759 whole entry): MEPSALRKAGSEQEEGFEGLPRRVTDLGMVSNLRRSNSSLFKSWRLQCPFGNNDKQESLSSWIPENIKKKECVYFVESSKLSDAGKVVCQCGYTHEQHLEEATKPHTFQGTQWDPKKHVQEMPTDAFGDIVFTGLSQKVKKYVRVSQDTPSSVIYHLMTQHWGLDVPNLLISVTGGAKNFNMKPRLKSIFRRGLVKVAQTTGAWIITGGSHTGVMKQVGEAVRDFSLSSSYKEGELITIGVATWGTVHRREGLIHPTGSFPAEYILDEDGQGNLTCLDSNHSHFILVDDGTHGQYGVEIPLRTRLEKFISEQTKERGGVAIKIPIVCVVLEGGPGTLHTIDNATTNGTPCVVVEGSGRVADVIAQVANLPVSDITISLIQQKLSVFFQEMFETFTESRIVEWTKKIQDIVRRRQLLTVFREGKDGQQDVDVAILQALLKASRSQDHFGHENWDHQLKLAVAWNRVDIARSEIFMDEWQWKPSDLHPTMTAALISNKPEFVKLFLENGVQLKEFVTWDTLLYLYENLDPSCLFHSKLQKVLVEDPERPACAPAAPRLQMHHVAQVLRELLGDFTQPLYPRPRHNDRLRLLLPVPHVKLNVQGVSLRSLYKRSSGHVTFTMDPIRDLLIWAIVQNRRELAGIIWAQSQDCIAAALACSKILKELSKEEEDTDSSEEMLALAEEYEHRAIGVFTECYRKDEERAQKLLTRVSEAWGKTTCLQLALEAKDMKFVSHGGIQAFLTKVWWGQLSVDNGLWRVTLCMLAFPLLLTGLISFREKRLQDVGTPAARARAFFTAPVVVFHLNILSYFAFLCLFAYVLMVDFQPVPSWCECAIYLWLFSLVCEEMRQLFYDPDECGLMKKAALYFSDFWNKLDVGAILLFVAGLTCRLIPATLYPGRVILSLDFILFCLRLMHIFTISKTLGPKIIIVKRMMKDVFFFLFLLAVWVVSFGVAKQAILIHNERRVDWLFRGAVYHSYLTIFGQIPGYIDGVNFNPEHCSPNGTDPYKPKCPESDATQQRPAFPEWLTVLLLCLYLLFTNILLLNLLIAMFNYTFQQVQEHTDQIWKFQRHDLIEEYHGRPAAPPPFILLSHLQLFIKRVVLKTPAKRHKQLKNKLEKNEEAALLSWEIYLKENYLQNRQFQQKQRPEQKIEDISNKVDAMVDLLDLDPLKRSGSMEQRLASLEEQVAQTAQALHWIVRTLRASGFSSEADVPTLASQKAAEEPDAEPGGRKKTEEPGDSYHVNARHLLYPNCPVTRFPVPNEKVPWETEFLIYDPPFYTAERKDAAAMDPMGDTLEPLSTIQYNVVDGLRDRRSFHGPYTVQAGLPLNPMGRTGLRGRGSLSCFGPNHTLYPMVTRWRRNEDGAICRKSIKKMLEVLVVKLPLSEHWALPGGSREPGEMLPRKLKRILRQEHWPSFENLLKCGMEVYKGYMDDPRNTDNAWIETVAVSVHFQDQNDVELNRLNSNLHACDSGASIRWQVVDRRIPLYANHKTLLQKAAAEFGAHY

Consider `CCOC(=O)c1cc(C(=O)c2ccccc2)n2cccc2c1` [II-1, 5-benzoimide 7-carboxylic acid ethyl ester], for which, in assay [1], the “area of cerebral infarction caused by tMCAO” value is reported as “significantly reduced” and the “neuromotor dysfunction scores caused by tMCAO” value is recorded as “significantly reduced”. For the same molecule, in assay [2] (TTC staining 24 h after ischemia-reperfusion), the “volume of cerebral infarction caused by tMCAO” value is reported as “significantly reduce”. The “scores of neuromotor dysfunction caused by tMCAO” value in assay [2] (scored 24 h after ischemia-reperfusion) was “significantly reduce”. The molecule further came in with an IC50 against human TRPM2 channels of 1 to 10 µM.
For the molecule `COC(=O)c1cc(C(=O)c2ccccc2)n2ccnc2c1` [III-1, 5-benzimidazolo[1,2-a]pyridine-7-methyl carboxylate], in assay [1], the “area of cerebral infarction caused by tMCAO” value is “significantly reduced” and the “neuromotor dysfunction scores caused by tMCAO” value is listed as “significantly reduced”. This molecule had a concentration for half-maximal inhibition (IC50) at human TRPM2 channels of 1 to 10 µM.
Turning to `COC(=O)c1cc(C(=O)c2ccc(C)cc2)n2ccnc2c1` [III-3, 5-(4-methylbenzoyl) imidazolo [1,2-a]pyridine-7-methyl carboxylate], on human TRPM2 channels, the IC50 was 10 to 20 µM.
On human TRPM2 channels, `CCOC(=O)c1cc(C(=O)c2ccccc2)n2ccnc2c1` [III-4, 5-benzimidazolo[1,2-a]pyridine-7-ethyl carboxylate] registered a 50% inhibitory concentration (IC50) of 10 to 20 µM.
`O=C(O)c1cc(C(=O)c2ccccc2)n2ccnc2c1` [III-5, 5-benzimide azo [1,2-a]pyridine-7-carboxylic acid] gave an IC50 against human TRPM2 channels of 10 to 20 µM.
Regarding `CN(C)C(=O)c1cc(C(=O)c2ccccc2)n2ccnc2c1` [III-6, 5-Benzoyl-N,N-dimethylimidazole[1,2-a]pyridine-7-formamide], the concentration for half-maximal inhibition (IC50) on human TRPM2 channels lay in the range of 10 to 20 µM.
Same read-out and setting: under `CCNC(=O)c1cc(C(=O)c2ccccc2)n2ccnc2c1` [III-7, 5-benzoyl-N-ethylimidazolo[1,2-a]pyridine-7-formamide] stands 1 to 10 µM; under `CCN(CC)C(=O)c1cc(C(=O)c2ccccc2)n2ccnc2c1` [III-8, 5-Benzoyl-N,N-diethylimidazole[1,2-a]pyridine-7-formamide], 10 to 20 µM.
In turn, `O=C(c1ccccc1)c1cc(C(=O)N2CCCC2)cc2nccn12` [III-9] yielded an IC50 at human TRPM2 channels of 10 to 20 µM.
`O=C(c1ccccc1)c1cc(C(=O)N2CCCCC2)cc2nccn12` [III-10, (5-benzimidazole[1,2-a]pyridine-7-yl) (piperidin-1-yl) ketone] came in with a 50% inhibitory concentration (IC50) against human TRPM2 channels of 10 to 20 µM.
For `CCOC(=O)c1cc(C(O)c2ccccc2)n2ccnc2c1` (centres unmarked) [III-11, 5-(hydroxy (phenyl)methylimidazolo [1,2-a]pyridine-7-ethyl carboxylate], the IC50 against human TRPM2 channels fell in the range of 20 to 50 µM.

The record behind these values is patent US20240228487A1, “FUSED HETEROCYCLIC COMPOUND AND APPLICATION THEREOF, PHARMACEUTICAL COMPOSITIONS CONTAINING SAME AND APPLICATION THEREOF” (ZHEJIANG UNIVERSITY, priority 2021, published 2024).
